Patent US9533977B2, “Oxazolidinone derivative as CETP inhibitor, its preparation method, and pharmaceutical composition comprising the same” (DONG-A ST CO., LTD., priority 2013, dated 2017)

target: T1, CETP (Homo sapiens, UniProt P11597); assay: Inhibitory activity against CETP in human plasma (Roar CETP activity kit, fluorescence); format: biochemical; conditions: plasma from healthy men diluted 1:10 in assay buffer, 37° C., 3 hrs, fluorescence 465/535 nm; read-out: IC50, Inhibition of CETP Activity in Human Plasma
T1 construct: from tissue; host or cells: human plasma from healthy men
T1 sequence (P11597 18-493): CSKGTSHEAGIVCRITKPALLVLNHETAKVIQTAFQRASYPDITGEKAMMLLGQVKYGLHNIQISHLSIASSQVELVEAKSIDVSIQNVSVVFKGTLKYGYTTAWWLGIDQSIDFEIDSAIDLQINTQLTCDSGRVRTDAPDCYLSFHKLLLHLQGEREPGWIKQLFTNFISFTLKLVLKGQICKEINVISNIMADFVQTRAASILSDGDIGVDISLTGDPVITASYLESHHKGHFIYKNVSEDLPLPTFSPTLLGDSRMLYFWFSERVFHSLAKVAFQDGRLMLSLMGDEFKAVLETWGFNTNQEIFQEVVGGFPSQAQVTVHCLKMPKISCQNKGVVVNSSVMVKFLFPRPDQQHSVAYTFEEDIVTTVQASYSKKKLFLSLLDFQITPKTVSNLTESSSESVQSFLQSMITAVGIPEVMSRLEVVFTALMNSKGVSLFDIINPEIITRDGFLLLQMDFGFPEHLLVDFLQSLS
Description: A CETP activity kit (#RB-CETP) was purchased from Roar […], Inc. A donor and an acceptor (each, 4 ul), a 10× assay buffer (177 ul), and each of dilutions of test compounds in dimethylsulfoxide (DMSO, Sigma-Aldrich) (0.01 nM˜10000 nM) were added to each well of black round-bottom 96-well plates (Corning #3792). Plasma samples from healthy men were diluted in the assay buffer (1:10=plasma:assay buffer), and added to each well. The plates were sealed with a sealing film (Sigma-Aldrich, #Z369659), and incubated in a 37° C. incubator microplate shaker (#SLST-3, Seolin Bio) for 3 hrs. After removal of the sealing film, fluorescence was read on Spectra Max Gemini EM (Molecular devices) with an excitation wavelength of 465 nm and an emission wavelength of 535 nm. Measurements were calculated according to the following formula. Calculated value=(Fluorescence Intensity with both compound and plasma−Fluorescence Intensity with compound but without plasma)/(Fluorescence Intensity with plasma but without compound−Fluorescence Intensity with neither compound nor plasma)
From the calculated value, a sigmoidal curve (y=start+(end-start)x^n/k^n+x^n) was drawn using Origin Software (OriginLab Corporation, ver. 8.0724) to obtain IC50 values.

| IC50 [nM] | Compound |
| --- | --- |
| 34.7 | CCN(c1ncc(-c2cc(C(F)(F)F)nn2C)cc1CN1C(=O)O[C@H](c2cc(C(F)(F)F)cc(C(F)(F)F)c2)[C@@H]1C)C1CCCCC1 [Example 60, (4S,5R)-5-[3,5-bis(trifluoromethyl)phenyl]-4-methyl-3-({[2-(ethyl)(cyclohexyl-4-yl)amino]-5-(1-methyl-1H-3-(trifluoromethyl)-pyrazol-5-yl)pyridin-3-yl}methyl)-oxazolidin-2-one] |
| 68 | CCCCN(c1ncc(C(F)(F)F)cc1CN1C(=O)O[C@H](c2cc(C(F)(F)F)cc(C(F)(F)F)c2)[C@@H]1C)C1CCOCC1 [Example 9, (4S,5R)-5-[3,5-bis(trifluoromethyl)phenyl]-4-methyl-3-({[2-(butyl)(tetrahydro-2H-pyran-4-yl)amino]-5-(trifluoromethyl)pyridin-3-yl}methyl)-oxazolidin-2-one] |
| 11.6 | (4S,5R)-5-[3,5-bis(trifluoromethyl)phenyl]-3-({[2-(cyclopropyl)(cyclohexyl)amino]-5-(3,5-dimethyl-isoxazol-4-yl)pyrazin-3-yl}methyl)-4-methyloxazolidin-2-one [Example 97] |
| 3.84 | CCN(C[C@H]1CC[C@H](CC(=O)O)CC1)c1ncc(-c2sccc2OC)nc1CN1C(=O)OC(c2cc(C(F)(F)F)cc(C(F)(F)F)c2)[C@@H]1C (stereo partly drawn) [Example 109] |
| 5.2 | CCN(c1ncc(C(F)(F)F)cc1CN1C(=O)O[C@H](c2cc(C(F)(F)F)cc(C(F)(F)F)c2)[C@@H]1C)C1CCCCC1 [Example 53, (4S,5R)-5-[3,5-bis(trifluoromethyl)phenyl]-4-methyl-3-({[2-(ethyl)(cyclohexyl)amino]-5-(trifluoromethyl)pyridin-3-yl}methyl)-oxazolidin-2-one] |
| 19.8 | CCN(c1ncc(Br)cc1CN1C(=O)O[C@H](c2cc(C(F)(F)F)cc(C(F)(F)F)c2)[C@@H]1C)C1CCOCC1 [Example 40, (4S,5R)-5-[3,5-bis(trifluoromethyl)phenyl]-4-methyl-3-({[2-(ethyl)(tetrahydro-2H-pyran-4-yl)amino]-5-bromopyridin-3-yl}methyl)-oxazolidin-2-one] |
| 108 | CCN(c1ncc(C(F)(F)F)cc1CN1C(=O)O[C@H](c2cc(C(F)(F)F)cc(C(F)(F)F)c2)[C@@H]1C)C1CCSCC1 [Example 25, (4S,5R)-5-[3,5-bis(trifluoromethyl)phenyl]-4-methyl-3-({[2-(ethyl)(tetrahydro-2H-thiopyran-4-yl)amino]-5-(trifluoromethyl)pyridin-3-yl}methyl)-oxazolidin-2-one] |
| 9.9 | (4S,5R)-5-[3,5-bis(trifluoromethyl)phenyl]-4-methyl-3-({[2-(ethyl)(cyclohexyl)amino]-5-(3-methoxy-thiophen-2-yl)pyridin-3-yl}methyl)-oxazolidin-2-one [Example 70] |
| 31.1 | CCN(c1ncc(-c2ccc(C)o2)cc1CN1C(=O)O[C@H](c2cc(C(F)(F)F)cc(C(F)(F)F)c2)[C@@H]1C)C1CCCCC1 [Example 75, (4S,5R)-5-[3,5-bis(trifluoromethyl)phenyl]-4-methyl-3-({[2-(ethyl)(cyclohexyl)amino]-5-(2-methyl-furan-5-yl)pyridin-3-yl}methyl)-oxazolidin-2-one] |
| 45.9 | CCN(C[C@H]1CC[C@H](CC(=O)O)CC1)c1ncc(-c2cn(C)nc2C)nc1CN1C(=O)OC(c2cc(C(F)(F)F)cc(C(F)(F)F)c2)[C@@H]1C (stereo partly drawn) [Example 108] |
| 31.9 | CCN(c1ncc(-c2c(N)noc2C)cc1CN1C(=O)O[C@H](c2cc(C(F)(F)F)cc(C(F)(F)F)c2)[C@@H]1C)C1CCCCC1 [Example 85, (4S,5R)-5-[3,5-bis(trifluoromethyl)phenyl]-4-methyl-3-({[2-(ethyl)(cyclohexyl)amino]-5-(3-amino-5-methyl-isoxazol-4-yl)pyridin-3-yl}methyl)-oxazolidin-2-one] |
| 20 | CCN(c1ncc(C(F)(F)F)cc1CN1C(=O)O[C@H](c2cc(C(F)(F)F)cc(C(F)(F)F)c2)[C@@H]1C)C1CCN(C(=O)OC)CC1 [Example 35, methyl 4-{[3-({(4S,5R)-5-[3,5-bis(trifluoromethyl)phenyl]-4-methyl-2-oxo-oxazolidin-3-yl}methyl)-5-(trifluoromethyl)pyridin-2-yl](ethyl)amino}piperidine-1-carboxylate] |
| 30.4 | CCN(c1ncc(-c2cscc2C)cc1CN1C(=O)O[C@H](c2cc(C(F)(F)F)cc(C(F)(F)F)c2)[C@@H]1C)C1CCCCC1 [Example 86, (4S,5R)-5-[3,5-bis(trifluoromethyl)phenyl]-4-methyl-3-({[2-(ethyl)(cyclohexyl)amino]-5-(3-methyl-thiophen-4-yl)pyridin-3-yl}methyl)-oxazolidin-2-one] |
| 246 | CCN(c1ncc(-c2ccsc2C#N)cc1CN1C(=O)O[C@@H](c2cc(C(F)(F)F)cc(C(F)(F)F)c2)[C@@H]1C)C1CCCCC1 [Example 82, 3-{5-({(4S,5S)-5-[3,5-bis(trifluoromethyl)phenyl]-4-methyl-2-oxo-oxazolidin-3-yl}methyl)-6-[(cyclohexyl)(ethyl)amino]pyridin-3-yl}-thiophene-2-carbonitrile] |
| 6.3 | CCN(c1ncc(C(F)(F)F)cc1CN1C(=O)O[C@H](c2cc(C(F)(F)F)cc(C(F)(F)F)c2)[C@@H]1C)C1CCOCC1 [Example 7, (4S,5R)-5-[3,5-bis(trifluoromethyl)phenyl]-4-methyl-3-({[2-(ethyl)(tetrahydro-2H-pyran-4-yl)amino]-5-(trifluoromethyl)pyridin-3-yl}methyl)-oxazolidin-2-one] |
| 379 | C[C@H]1[C@@H](c2cc(C(F)(F)F)cc(C(F)(F)F)c2)OC(=O)N1Cc1cc(C(F)(F)F)cnc1N(CC(=O)OC(C)(C)C)C1CCOCC1 [Example 17, t-butyl 2-([3-({(4S,5R)-5-[3,5-bis(trifluoromethyl)phenyl]-4-methyl-2-oxo-oxazolidin-3-yl}methyl)-5-(trifluoromethyl)pyridin-2-yl]-(tetrahydro-2H-pyran-4-yl)amino)-acetate] |
| 98 | CCN(c1ncccc1CN1C(=O)O[C@H](c2cc(C(F)(F)F)cc(C(F)(F)F)c2)[C@@H]1C)C1CCOCC1 [Example 14, (4S,5R)-5-[3,5-Bis(trifluoromethyl)phenyl]-4-methyl-3-({[2-ethyl(tetrahydro-2H-pyran-4-yl)amino]-pyridin-3-yl}methyl)-oxazolidin-2-one] |
| 334 | CCN(c1ncc(-c2cn[nH]c2)cc1CN1C(=O)O[C@H](c2cc(C(F)(F)F)cc(C(F)(F)F)c2)[C@@H]1C)C1CCCCC1 [Example 68, (4S,5R)-5-[3,5-bis(trifluoromethyl)phenyl]-4-methyl-3-({[2-(ethyl)(cyclohexyl)amino]-5-(1H-pyrazol-4-yl)pyridin-3-yl}methyl)-oxazolidin-2-one] |
| 87.4 | CCN(c1ncc(-c2cccn2C(=O)OC(C)(C)C)cc1CN1C(=O)O[C@@H](c2cc(C(F)(F)F)cc(C(F)(F)F)c2)[C@@H]1C)C1CCCCC1 [Example 76, t-butyl 2-{5-({(4S,5S)-5-[3,5-bis(trifluoromethyl)phenyl]-4-methyl-2-oxo-oxazolidin-3-yl}methyl)-6-[(cyclohexyl)(ethyl)amino]pyridin-3-yl}-1H-pyrrole-1-carboxylate] |
| 78.2 | CCN(C[C@H]1CC[C@H](CC(=O)O)CC1)c1ncc(-c2cccnc2)nc1CN1C(=O)OC(c2cc(C(F)(F)F)cc(C(F)(F)F)c2)[C@@H]1C (stereo partly drawn) [Example 119] |
| 24.3 | CCN(c1ncc(-c2ccc(C)s2)cc1CN1C(=O)O[C@H](c2cc(C(F)(F)F)cc(C(F)(F)F)c2)[C@@H]1C)C1CCCCC1 [Example 79, (4S,5R)-5-[3,5-bis(trifluoromethyl)phenyl]-4-methyl-3-({[2-(ethyl)(cyclohexyl)amino]-5-(2-methyl-thiophen-5-yl)pyridin-3-yl}methyl)-oxazolidin-2-one] |
| 10 | CCN(c1ncc(C(F)(F)F)cc1CN1C(=O)O[C@H](c2cc(C(F)(F)F)cc(C(F)(F)F)c2)[C@@H]1C)C1CCCOC1 (stereo partly drawn) [Example 15, (4S,5R)-5-[3,5-bis(trifluoromethyl)phenyl]-4-methyl-3-({[2-ethyl(tetrahydro-2H-pyran-3-yl)amino]-5-(trifluoromethyl)pyridin-3-yl}methyl)-oxazolidin-2-one] |
| 3.8 | (4S,5R)-5-[3,5-bis(trifluoromethyl)phenyl]-4-methyl-3-({[2-(methyl)(cyclohexyl)amino]-5-(3,5-dimethyl-isoxazol-4-yl)pyrazin-3-yl}methyl)-oxazolidin-2-one [Example 95] |

| Compound | IC50 [nM] |
| --- | --- |
| (4S,5S)-5-[3,5-bis(trifluoromethyl)phenyl]-4-methyl-3-({[2-(methyl)(tetrahydro-2H-pyran-4-yl)amino]-5-(trifluoromethyl)pyridin-3-yl}methyl)-oxazolidin-2-one [Example 6] | 49 |
